Experimental data as given in ChEMBL document CHEMBL1142001, “Novel and orally bioavailable inducible nitric oxide synthase inhibitors: synthesis and evaluation of optically active 4,5-dialkyl-2-iminoselenazolidine derivatives” (Bioorg Med Chem Lett, 2005).

Columns and labels:
Mus musculus = experiment: Inhibitory dose (p.o.) tested against plasma nitrite/nitrate levels in LPS-treated mice; type: functional; details: po, read-out: ID50 (the source's name)
[1] = Tmax of compound (0.3 mg/kg) on oral administration to rats; type: ADME, organism-based; details: rat, in vivo
[2] = target: Nitric oxide synthase, inducible (Homo sapiens, UniProt P35228); experiment: Inhibitory concentration against inducible […]
Chain of Nitric oxide synthase, inducible (P35228 whole entry): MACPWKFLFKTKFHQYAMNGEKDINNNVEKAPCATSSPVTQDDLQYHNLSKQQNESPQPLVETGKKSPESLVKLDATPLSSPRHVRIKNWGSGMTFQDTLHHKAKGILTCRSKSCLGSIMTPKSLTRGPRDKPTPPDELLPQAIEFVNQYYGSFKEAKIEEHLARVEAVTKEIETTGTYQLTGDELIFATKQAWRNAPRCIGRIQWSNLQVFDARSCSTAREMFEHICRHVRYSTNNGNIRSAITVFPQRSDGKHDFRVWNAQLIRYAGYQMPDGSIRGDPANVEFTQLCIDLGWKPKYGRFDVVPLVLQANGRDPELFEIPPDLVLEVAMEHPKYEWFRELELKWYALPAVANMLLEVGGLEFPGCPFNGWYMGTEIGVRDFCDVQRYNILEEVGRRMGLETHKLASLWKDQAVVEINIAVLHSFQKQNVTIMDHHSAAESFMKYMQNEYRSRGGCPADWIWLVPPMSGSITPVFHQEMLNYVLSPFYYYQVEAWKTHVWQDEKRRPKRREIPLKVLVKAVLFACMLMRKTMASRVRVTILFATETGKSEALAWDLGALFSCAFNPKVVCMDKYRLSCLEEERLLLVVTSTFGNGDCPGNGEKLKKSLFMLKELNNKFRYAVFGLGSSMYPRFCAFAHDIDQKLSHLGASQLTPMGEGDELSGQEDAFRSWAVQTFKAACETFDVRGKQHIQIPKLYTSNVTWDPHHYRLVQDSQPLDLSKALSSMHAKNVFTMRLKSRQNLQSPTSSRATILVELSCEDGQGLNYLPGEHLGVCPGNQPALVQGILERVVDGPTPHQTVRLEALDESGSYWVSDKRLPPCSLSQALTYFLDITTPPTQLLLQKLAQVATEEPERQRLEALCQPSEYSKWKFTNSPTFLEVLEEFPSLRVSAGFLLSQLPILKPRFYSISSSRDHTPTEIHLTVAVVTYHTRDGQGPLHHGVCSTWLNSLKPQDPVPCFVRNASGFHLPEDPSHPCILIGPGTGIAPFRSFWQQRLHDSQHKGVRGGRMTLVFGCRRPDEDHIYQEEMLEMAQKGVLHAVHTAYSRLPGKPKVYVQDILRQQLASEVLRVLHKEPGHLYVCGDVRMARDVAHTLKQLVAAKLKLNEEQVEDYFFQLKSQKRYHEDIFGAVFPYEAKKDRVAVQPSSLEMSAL

[3] = Cmax of compound (0.3 mg/kg) on oral administration to rats; type: ADME, organism-based; set-up: dose 0.3 mg/kg, route oral; details: rat, in vivo
[4] = Clearance rate (0.3 mg/kg) on intravenous administration to rats; type: ADME, organism-based; details: rat, in vivo
[5] = Half life value of compound (0.3 mg/kg) on oral administration to rats; type: ADME, organism-based; details: rat, in vivo
[6] = Area under concentration time curve value in rat was determined at a intravenous dosage of 0.3 mg/kg; type: ADME, organism-based; set-up: dose 0.3 mg/kg, route intravenous; details: in vivo
[7] = Half life value of compound (0.3 mg/kg) on intravenous administration to […]; type: ADME, organism-based; details: rat, in vivo
Nitric oxide synthase 1 = Nitric oxide synthase 1 (Homo sapiens, UniProt P29475); experiment: Inhibitory concentration against neuronal […]
Chain of Nitric oxide synthase 1 (P29475 whole entry): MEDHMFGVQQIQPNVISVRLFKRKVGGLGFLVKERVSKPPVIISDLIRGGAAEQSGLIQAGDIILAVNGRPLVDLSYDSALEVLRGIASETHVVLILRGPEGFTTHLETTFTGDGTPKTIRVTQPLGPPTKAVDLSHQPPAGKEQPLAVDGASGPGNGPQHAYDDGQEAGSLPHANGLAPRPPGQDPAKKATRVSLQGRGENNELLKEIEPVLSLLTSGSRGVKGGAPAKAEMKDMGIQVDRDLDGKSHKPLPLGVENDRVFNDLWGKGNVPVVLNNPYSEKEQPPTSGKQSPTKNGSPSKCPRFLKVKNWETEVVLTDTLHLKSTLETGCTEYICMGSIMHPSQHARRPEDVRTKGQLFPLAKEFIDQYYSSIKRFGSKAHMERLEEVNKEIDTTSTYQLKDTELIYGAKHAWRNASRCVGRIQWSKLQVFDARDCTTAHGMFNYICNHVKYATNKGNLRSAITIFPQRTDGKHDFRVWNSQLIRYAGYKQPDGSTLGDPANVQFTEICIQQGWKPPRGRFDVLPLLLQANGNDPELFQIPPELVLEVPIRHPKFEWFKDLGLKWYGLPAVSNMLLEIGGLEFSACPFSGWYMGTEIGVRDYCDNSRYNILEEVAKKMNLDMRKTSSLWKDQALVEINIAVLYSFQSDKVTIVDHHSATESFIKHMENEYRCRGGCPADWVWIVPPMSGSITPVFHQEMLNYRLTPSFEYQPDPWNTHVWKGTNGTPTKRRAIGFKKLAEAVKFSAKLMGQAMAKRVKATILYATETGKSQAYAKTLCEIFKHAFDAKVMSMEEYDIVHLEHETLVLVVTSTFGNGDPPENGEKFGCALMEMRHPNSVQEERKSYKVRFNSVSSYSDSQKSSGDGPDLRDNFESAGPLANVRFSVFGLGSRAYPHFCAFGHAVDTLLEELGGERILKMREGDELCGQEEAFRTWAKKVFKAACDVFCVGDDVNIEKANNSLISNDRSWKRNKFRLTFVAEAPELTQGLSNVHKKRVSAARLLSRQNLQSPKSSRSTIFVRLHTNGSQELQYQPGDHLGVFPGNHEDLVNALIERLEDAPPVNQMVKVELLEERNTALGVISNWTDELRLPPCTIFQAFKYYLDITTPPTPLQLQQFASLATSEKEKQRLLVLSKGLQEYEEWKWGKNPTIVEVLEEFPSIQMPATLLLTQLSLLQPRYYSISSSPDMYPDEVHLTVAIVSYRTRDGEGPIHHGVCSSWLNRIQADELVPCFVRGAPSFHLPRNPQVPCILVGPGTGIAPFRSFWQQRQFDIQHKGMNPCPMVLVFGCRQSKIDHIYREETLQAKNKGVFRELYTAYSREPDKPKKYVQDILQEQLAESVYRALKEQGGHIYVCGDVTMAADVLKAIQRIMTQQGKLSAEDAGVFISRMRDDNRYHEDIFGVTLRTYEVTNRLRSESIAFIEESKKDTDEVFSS

[8] = Oral bioavailability of compound (0.3 mg/kg) on oral administration to rats; type: ADME, organism-based; details: rat, in vivo, read-out: Bioavailabiility
[9] = Area under the concentration time curve value of compound was determined in rats after oral dosage of 0.3 mg/kg; type: ADME, organism-based; set-up: dose 0.3 mg/kg, route oral; details: rat, in vivo

SMILES	IC50 [2] [nM]	IC50 (Nitric oxide synthase 1) [nM]	also measured
CC[C@H]1[Se]C(N)=N[C@@H]1C	9.3	790	ED50 (Mus musculus): 0.3 mg/kg; Tmax [1]: 30 min; Cmax [3]: 45 ng/mL; clearance [4]: 55.5 mL/min/kg; half-life [5]: 72 min; AUC [6]: 117 ng·h/mL; half-life [7]: 57 min; bioavailability [8]: 73%; AUC [9]: 45 ng·h/mL
CC[C@@H]1[Se]C(N)=N[C@H]1C	34	350	
CC[C@@H]1N=C(N)[Se][C@@H]1C	80	740	
CC[C@H]1N=C(N)[Se][C@H]1C	21	280	
CC[C@H]1[Se]C(N)=N[C@H]1C	340	6900	
CC[C@@H]1N=C(N)[Se][C@H]1C	21	280	
CC[C@H]1N=C(N)[Se][C@@H]1C	9.4	92	
CC[C@H]1SC(N)=N[C@@H]1C	6.6	380	
CC[C@@H]1[Se]C(N)=N[C@@H]1C	66	1300	
